According to patent US20150259403A1, “Methods and Pharmaceutical Compositions for Treatment of Gastrointestinal Stromal Tumors” (INSERM (INSTITUT NATIONAL DE LA SANTÉ ET DE LA RECHERCHE …, priority 2012, published 2015):
“Also recorded” adds a separate entry of the source.

Test system: RBPMS2 transcript level in GIST882 cells
Assay: RBPMS2 transcript level by quantitative RT-PCR in GIST882 cells after inhibitor treatment
Assay type: cell-based, human
Description: For quantitative RT-PCR analysis, gene expression levels were measured using the LightCycler technology (Roche Diagnostics). […] Each sample was assayed in three independent experiments in triplicate. Expression levels were determined with the LightCycler analysis software (version 3.5) relative to standard curves. Data were represented as the mean level of gene expression relative to the expression of the reference gene HPRT (Roche Diagnostic). For cell culture experiments, RNA isolation was done with the RNeasy Mini kit (Qiagen) and quantitative RT-PCR was performed using Power Sybergreen (Applied biosystems). Data were represented as the mean level of gene expression relative to the expression of the reference genes ABL, TTC1 and UBC for the comparison of RBPMS2 expression between different cell lines and GAPDH and ACTIN for GIST882 cells, which were treated with either Imatinib or U0126.
The human GIST cell line GIST882 was maintained in DMEM (GIBCO) supplemented with 10% Fetal Bovine Serum (FBS), 2% Penicilline-Streptomycin (Lonza) and incubated with 1 μM of Imatinib (inhibitor of KIT activity) (LC Laboratory) or 5 μM of U0126 (MEK inhibitor) (Sigma-Aldrich), as previously described (Gromova et al., 2011).

Structure (SMILES)	RBPMS2 transcript (mRNA) level (1 μM Imatinib vs DMSO control, 6, 24 and 48 h)	RBPMS2 transcript (mRNA) level (5 μM U0126 vs DMSO control, 6, 24 and 48 h)
Cc1ccc(NC(=O)c2ccc(CN3CCN(C)CC3)cc2)cc1Nc1nccc(-c2cccnc2)n1 [Imatinib]	No significant changes; also recorded: not influenced	
N#CC(=C(/N)Sc1ccccc1N)/C(C#N)=C(\N)Sc1ccccc1N [U0126]		No significant changes; also recorded: not influenced
